Experimental data reported in US11084829B2, “Ubiquitin-specific-processing protease 7 (USP7) modulators and uses thereof” (RAPT THERAPEUTICS, INC., priority 2018, dated 2021).

target: USP7 (Homo sapiens, UniProt Q93009); experiment: USP7 inhibitory potency (IC50); assay type: biochemical
Experimental: Activity for compounds described herein is provided in Table 2, wherein potency levels are provided as follows: (Potency: USP7 IC50: A<0.01 μM; B=0.01-0.1 μM; C=>0.1 μM.

Chain of USP7 (Q93009 whole entry): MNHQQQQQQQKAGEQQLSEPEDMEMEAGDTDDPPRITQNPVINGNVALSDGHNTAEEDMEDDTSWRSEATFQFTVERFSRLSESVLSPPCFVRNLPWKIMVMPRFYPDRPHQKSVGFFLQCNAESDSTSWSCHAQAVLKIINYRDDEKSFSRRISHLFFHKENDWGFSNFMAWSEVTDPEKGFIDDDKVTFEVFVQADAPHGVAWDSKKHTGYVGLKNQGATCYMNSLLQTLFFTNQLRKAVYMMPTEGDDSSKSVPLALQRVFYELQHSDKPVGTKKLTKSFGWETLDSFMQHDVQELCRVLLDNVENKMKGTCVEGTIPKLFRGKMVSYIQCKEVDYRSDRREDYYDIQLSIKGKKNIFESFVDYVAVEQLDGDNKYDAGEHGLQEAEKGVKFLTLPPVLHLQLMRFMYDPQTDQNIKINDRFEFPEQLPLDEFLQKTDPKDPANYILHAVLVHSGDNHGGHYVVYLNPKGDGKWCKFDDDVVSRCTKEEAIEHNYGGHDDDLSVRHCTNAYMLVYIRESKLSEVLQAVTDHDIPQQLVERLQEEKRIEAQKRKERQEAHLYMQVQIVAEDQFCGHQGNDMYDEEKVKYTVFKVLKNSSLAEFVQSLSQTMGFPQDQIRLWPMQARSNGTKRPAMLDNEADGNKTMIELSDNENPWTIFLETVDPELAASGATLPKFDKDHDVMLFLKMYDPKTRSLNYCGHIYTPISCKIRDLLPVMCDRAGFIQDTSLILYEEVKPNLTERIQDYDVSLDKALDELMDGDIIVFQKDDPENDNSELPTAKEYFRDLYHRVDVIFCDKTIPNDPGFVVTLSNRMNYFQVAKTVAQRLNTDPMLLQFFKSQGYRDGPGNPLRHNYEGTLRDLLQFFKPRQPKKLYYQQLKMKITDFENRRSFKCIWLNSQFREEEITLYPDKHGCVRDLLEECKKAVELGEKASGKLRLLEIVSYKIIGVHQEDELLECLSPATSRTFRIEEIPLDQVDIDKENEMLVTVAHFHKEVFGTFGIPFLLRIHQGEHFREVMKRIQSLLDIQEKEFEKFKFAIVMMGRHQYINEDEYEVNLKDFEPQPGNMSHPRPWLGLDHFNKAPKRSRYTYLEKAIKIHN

`Cc1cc(Cl)cc(-c2ccnc3cc(CN4C(=O)CCCC4=O)sc23)c1CN1C[C@@H](C)NC[C@@H]1C` [Example 45, 1-((7-(5-chloro-2-(((2S,5R)-2,5-dimethylpiperazin-1-yl)methyl)-3-methylphenyl)thieno[3,2-b]pyridin-2-yl)methyl)piperidine-2,6-dione] and `Cc1cc(Cl)cc(-c2ccnc3cc(CN4C(=O)C5CC5C4=O)sc23)c1CN1C[C@@H](C)NC[C@H]1C` (stereo partly drawn) [Example 34, 3-((7-(5-chloro-2-(((2R,5R)-2,5-dimethylpiperazin-1-yl)methyl)-3-methylphenyl)thieno[3,2-b]pyridin-2-yl)methyl)-3-azabicyclo[3.1.0]hexane-2,4-dione] cannot be ordered by IC50: under 10 nM for the first, under 10 nM for the second.

`CN1CC(=O)N(Cc2cc3nccc(-c4cc(Cl)cc(Cl)c4CC4CNCCO4)c3s2)C1=O` (stereo not shown) [Example 141, 3-((7-(3,5-dichloro-2-(morpholin-2-ylmethyl)phenyl)thieno[3,2-b]pyridin-2-yl)methyl)-1-methylimidazolidine-2,4-dione] and `Cc1cc(Cl)cc(-c2ncnc3cc(Cn4c(=O)ccn(CC(F)(F)F)c4=O)sc23)c1CC1CNCCO1` (stereo not shown) [Example 167, 3-((4-(5-chloro-3-methyl-2-(morpholin-2-ylmethyl)phenyl)thieno[3,2-d]pyrimidin-6-yl)methyl)-1-(2,2,2-trifluoroethyl)pyrimidine-2,4(1H,3H)-dione] cannot be ordered by IC50: under 10 nM for the first, under 10 nM for the second.

`Cc1cc(Cl)cc(-c2ncnc3cc(CN4C(=O)CCC4=O)sc23)c1CC1CNCC(C)(C)O1` (stereo not shown) [Example 190, 1-((4-(5-chloro-2-((6,6-dimethylmorpholin-2-yl)methyl)-3-methylphenyl)thieno[3,2-d]pyrimidin-6-yl)methyl)pyrrolidine-2,5-dione] and `Cc1cc(Cl)cc(-c2ncnc3cc(CN4C(=O)CCN(CCF)C4=O)sc23)c1C[C@@H]1CNCC(C)(C)O1` [Example 257, 3-[[4-[5-chloro-2-[[(2R)-6,6-dimethylmorpholin-2-yl]methyl]-3-methyl-phenyl]thieno[3,2-d]pyrimidin-6-yl]methyl]-1-(2-fluoroethyl)hexahydropyrimidine-2,4-dione] cannot be ordered by IC50: under 10 nM for the first, under 10 nM for the second.

`Cc1cc(Cl)cc(-c2ccnc3c(F)c(CN4C(=O)C5C(C4=O)C5(C)C)sc23)c1C[C@@H]1CNCCO1` (stereo partly drawn) [Example 146, 3-((7-(5-chloro-3-methyl-2-(((R)-morpholin-2-yl)methyl)phenyl)-3-fluorothieno[3,2-b]pyridin-2-yl)methyl)-6,6-dimethyl-3-azabicyclo[3.1.0]hexane-2,4-dione] showed an IC50 of 10 to 100 nM.
